Results on 1 compound are retold here after patent US20250313530A1, “SMALL MOLECULE INHIBITORS OF INTERLEUKIN-4 AND USES THEREOF” (Trustees of Boston University, priority 2024, published 2025).

In one data set the test system is B16-F10 cells. The experiment in a line: In vitro cytotoxicity (CellTiter-Glo). The format is cell-based. As to conditions: up to 25 μM. The method, then:
CellTiter-Glo 2.0 purchased from Promega G9242) was used to measure cell viability with the Victor-3 plate reader (PerkinElmer) after 24 hours in concentrations of compound up to 25 μM. Vehicle was used as a negative control for both cytotoxicity and growth inhibition, methanol was used as a positive control for cytotoxicity, and 1% FBS was used as a positive control for growth inhibition.
Background: Cellular ATP, detected with luciferase, serves as a proxy for viable cell number.

Another data set addresses IL-13 (Homo sapiens, UniProt P35225). To be noted: previously reported; cited from earlier work.
Data set [1] concerns IL-4 induced STAT-6 phosphorylation in Ramos B lymphocytes (type I IL-4 receptor). The experiment in a line: Ramos STAT-6 phosphorylation assay (western blot). It is filed as cell-based. As to conditions: Ramos B lymphocytes. The method, then:
Ramos cells were purchased from ATCC and maintained in RMPI-1640 with 10% heat-inactivated Fetal Bovine Serum. Cells used for assays were between passages 4 and 8. […] Undiluted cell lysates were run SDS-PAGE and transferred to Immunoblot PVDF membrane using Biorad equipment. Membranes were incubated with 1:1000 primary antibody overnight at 4° C. Membranes were then incubated with 1:50,000 dilution secondary for 1 hour at room temperature. Membranes were then exposed to Femto ECL for 5 minutes and imaged using a Bio-Rad Gel Doc. The brightness/contrast was adjusted in FIJI and the area under the curve of each lane was quantified. The phosphorylated STAT-6 to STAT-6 ratio was calculated and normalized to the amount of total STAT-6. The data was plotted and analyzed using GraphPad Prism 9.2.0.

Data set [2] can be described thus: Mouse hepatic microsome stability. The format is in vitro ADME. As to conditions: mouse hepatic microsomes.
In data set [3] the target is IL-4 induced STAT-6 phosphorylation in THP-1 monocytes (type II IL-4 receptor). As to conditions: previously reported, read-out: EC50 of inhibition of STAT-6 phosphorylation; cited from earlier work.
The nature of a further data set: Mouse plasma stability. It is filed as in vitro ADME.
The next data set deals with T1, IL-4 (Homo sapiens, UniProt P05112).
T1 construct: purchased Acros Biosystems IL4-H4218; host or cells: HEK-293
T1 sequence (P05112 25-153): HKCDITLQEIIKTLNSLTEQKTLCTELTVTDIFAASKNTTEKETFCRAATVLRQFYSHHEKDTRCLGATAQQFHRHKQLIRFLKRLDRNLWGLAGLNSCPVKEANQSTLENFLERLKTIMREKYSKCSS
As to the kind of experiment: HEK-Blue IL-4/IL-13 reporter assay, IL-4 inhibition. It is filed as cell-based. The method, then:
HEK-Blue IL-4/IL-13 Inhibition assay. HEK-Blue IL-4/IL-13 reporter cell lines were purchased from Invivogen and cultured in DMEM with 10% Heat Inactivated Fetal Bovine Serum (FBS), 100 U/ml-100 μg/ml Pen-Strep, 10 μg/ml blasticidin, 100 μg/ml Normocin and 100 μg/ml Zeocin. Cells were tested for secreted embryonic alkaline phosphatase (SEAP) production induced by IL-4 alone prior to small molecule screening.
22.5 μl of small molecule in DMEM 4% DMSO was added to 22.5 μl of 1 ng/ml IL-4 in DMEM in a non-binding 96-well reaction plate for 30 minutes at room temperature. The reaction plate was further incubated for 30-60 min at 37° C. HEK-Blue IL-4/IL-13 reporter cell line was used between passages 11-17. […] Measurements were done in triplicate. The plate was incubated for ˜22-24 hours at 37° C./5% CO2. Quanti-Blue dye was prepared as per the manufacturer's recommendation and 160 μl was dispensed in each well of a 96-well plate (avoid edges to avoid evaporation), 40 μl of cell supernatant was added to the same plate and incubated for 3 hours at 37° C./5% CO2. Optical density was then measured at 650 nm using Molecular Devices SpectraMax M5 Microplate reader. Data was analyzed and plotted using GraphPad Prism 9.2.0.
(In general: Reporter assays use an easily measured gene product as a stand-in for the process of interest.)

Data set [4] deals with murine IL-4 induced STAT-6 phosphorylation in RAW 264.7 macrophages. The experiment in a line: RAW 264.7 STAT-6 phosphorylation assay (western blot). The format is cell-based. The method, then:
RAW 264.7 cells were purchased from ATCC and maintained in DMEM with 10% heat-inactivated Fetal Bovine Serum. Cells used for assays were between passages 3 and 5. […] The undiluted cell lysates were run SDS-PAGE followed by transfer to Immunoblot PVDF membrane using Biorad equipment. Membranes were incubated with 1:1000 primary antibody overnight at 4° C. Membranes were then incubated with 1:50,000 dilution secondary for 1 hour at room temperature. Membranes were then exposed to Femto ECL for 5 minutes and imaged using a Bio-Rad Gel Doc. The brightness/contrast was adjusted in FIJI and the area under the curve of each lane was quantified. The phosphorylated STAT-6 to STAT-6 ratio was calculated and normalized to the amount of total STAT-6. The data was plotted and analyzed using GraphPad Prism 8.
For orientation: In western blotting, separated proteins are transferred to a membrane and probed.

Another data set can be described thus: Human plasma stability. It is filed as in vitro ADME.
Data set [5] in a line: PAMPA membrane permeability. It is filed as in vitro ADME. As to conditions: 18 hours incubation. How it is done: PVDF membranes purchased from Bioassay Systems PAMPA-096 were coated with 5 μL of 4% Phosphatidylcholine (Lecithin, MP Biomedicals 0210214780) in dodecane. […] Permeability was calculated by Pv=C×ln (1−ODA/ODE) cm/s, where ODA is the absorbance of acceptor solution minus blank, and ODE the absorbance of the equilibrium standard minus blank, and C=7.72×10^−6 using an 18-hour incubation time.

“Also recorded” adds a separate entry of the source. Some results are limits rather than exact numbers.

Chain of IL-13 (P35225 25-146): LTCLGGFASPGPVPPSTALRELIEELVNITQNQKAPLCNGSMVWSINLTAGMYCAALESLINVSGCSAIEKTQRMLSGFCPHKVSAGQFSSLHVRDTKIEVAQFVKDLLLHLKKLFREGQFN

As a reminder, the inhibition is the share of the control response that was lost under treatment. For orientation: EC50 means the concentration giving half of the maximal effect. The term % Inhibition denotes the drop in the measured response relative to a control, in per cent. Read a high % Inhibition as a response far below the control. Broadly, the Hill coefficient is a measure of the steepness of the concentration-response curve. What is called Papp is the rate of passage across a membrane or cell layer, normalised by area and donor concentration. A low value points to slow passage. For `N#Cc1c(-c2ccc(O)c(O)c2)cc(-c2ccc(F)cc2)nc1N` [Nico-52, 4-(3,4-dihydroxyphenyl)-6-(4fluorophenyl)-2-imino-1,2-dihydropyridine-3-carbonitrile, reference compound], in the data set on B16-F10 cells, the “Cytotoxicity in B16-F10 cells (24 hours)” value is “no toxicity; also recorded: n.s. < 25 μM”. Further, the “fold higher inhibition for IL-4 activity than IL-13 activity” value at IL-13 is 10 fold. Further, the inhibition at 0.5 µM in [1] (Homo sapiens, 500 nM, read-out: percent inhibition of STAT-6 phosphorylation) turned out to be 14.6%. The EC50 in data set [1] (Homo sapiens, western blot, read-out: EC50 of inhibition of STAT-6 phosphorylation) was 1.03 µM; in data set [3] it was 3.1 µM; on IL-4 (dose response, IL-4 inhibition, HEK Blue IL-4/IL-13 reporter assay, read-out: EC50) it was 1.32 ± 0.38 µM; in [4] (Mus musculus, RAW264.7, RAW 264.7 macrophages, murine IL-4, read-out: EC50 of reduction in pSTAT-6 levels), 1.28 µM. Moreover, the “inhibition of phosphorylation of STAT-6” value in data set [1] (50 nM) is “minimum inhibition”. The “Mouse hepatic microsome stability (% remaining after 1 hour)” value in data set [2] stood at 86.5%. Further, in “Mouse plasma stability”, the “Mouse plasma stability (% remaining after 3 hours)” value is 97%. Further, at IL-4 (10 μM, IL-4, HEK Blue IL-4/IL-13 reporter assay), the “% Inhibition” value is recorded as 97.6 ± 1.57%. In addition, the inhibition at 10 µM on IL-4 (HEK-Blue, 10 μM, IL-4, HEK Blue IL-4/IL-13 reporter assay, read-out: % Inhibition) is more than 97%. Moreover, at IL-4 (fit of dose response in HEK Blue IL-4/IL-13 reporter assay), the Hill coefficient was determined as 1.24±0.08. For the same compound, the STAT-6 levels entry in data set [4] (total STAT-6, RAW 264.7) is reported as “not affected”. The “Human plasma stability (% remaining after 3 hours)” value in the data set “Human plasma stability” is given as more than 99%. In data set [5], this compound had a Papp at 18 h, 100 μM of 16.4 ×10⁻⁶ cm/s.
